# From patent US9603836B2, “Pyrrolidine-2, 5-dione derivatives, pharmaceutical compositions and methods for use as IDO1 inhibitors” (ITEOS THERAPEUTICS, priority 2014, dated 2017)
# Legend:
# Kynurenine = test: In-vivo inhibition of blood kynurenine levels in healthy mice; set-up: species or system mouse; conditions: two hours
# Experimental: The compounds of the present invention reduce the amount of Kynurenine in healthy mouse blood.
# Briefly, mice were treated with either a suspension of one of the compounds of the present invention in 0.5% hydroxypropyl methylcellulose (HPMC) K4M/0.25% Tween 20 at different doses, or with a vehicle control (0.5% HPMC K4M/0.25% Tween 20), by the oral route by gavage (dosing volume 5 mL/kg, 10 mice per group). After two hours, blood was harvested, plasma was prepared and the amount of Kynurenine present was determined by LC-MS-MS (HPLC column Unison UK-Phenyl, 75×4.6, 3 μm, flow rate 0.8 mL/min, 4 minutes gradient from water+0.2% acetic acid to methanol+0.1% formic acid, retention time 2.7 min; API4000™ MS-MS system from AB Sciex, ESI+ mode, parent ion 209.2, daughter ion 94.1).
# PancO2 tumors = test: In vivo efficacy in PancO2 pancreatic cancer syngeneic model; set-up: species or system C57/B16 mice; conditions: PancO2, 100 mg/kg BID oral
# Experimental: In vivo efficacy studies of the Compounds of the present invention were performed on PancO2 syngeneic tumor model of C57/B16 mice implanted subcutaneously. Five millions PancO2 pancreas cancer cells were implanted subcutaneously to 7 weeks old C57/B16 mice (day 0). Animals were randomized based on tumor size when tumor average reached 60 mm^3 (between day 10 and 12) into different treatment cohorts. The Compound was administered orally twice per day (approximately at 9 am and 5 pm) starting the day of randomization. The Compound was suspended into Methocel vehicle and sonicated before oral administration to animals using gavage needles. Treatment was administered daily until the end of the study. All experimental animals were monitored for body weight changes weekly. Tumor volume was measured weekly using a caliper device and calculated with the following formula: Tumor volume=0.5×(length×width^2). Studies were terminated before tumor volumes reached 2000 mm. TGI (% tumor growth inhibition) was determined as
# Treatment was administered daily until the end of the study. Tumor volume was measured weekly using a caliper device and calculated with the following formula: Tumor volume=0.5×(length×width^2). Mice were considered as dead when tumor size reached 400 mm^3. […] SEM refers to standard error of measurement.
# hIDO1 [1] = biological target: T1, hIDO1 (Homo sapiens (Human), UniProt P14902); test: Assay for IDO1 enzymatic activity determination; assay type: biochemical; conditions: human recombinant IDO1 enzyme, L-Trp 100 μM
# Experimental: To measure enzymatic activity of human IDO1, the reaction mixture contained (final concentrations) potassium phosphate buffer (50 mM, pH 6.5), ascorbic acid (10 mM), methylene blue (5 μM) and human recombinant IDO1 enzyme (prepared as described in Rohrig et al. J Med Chem, 2012, 55, 5270-5290; final concentration 5 μg/mL) without or with the compounds of the present invention at the indicated concentrations (total volume 112.5 μL). The reaction was initiated by the addition of 37.5 μL of L-Trp (final concentration 100 μM) at room temperature. The reaction was conducted at room temperature during 15 minutes and stopped by the addition of 30 μL of 30% (w/v) trichloroacetic acid.
# To convert N-formylkynurenine into kynurenine, the reaction mixture was incubated at 65° C. for 30 min. Then 120 μL of 2.5% (w/v) 4-(dimethylamino)-benzaldehyde in acetic acid were added and the mixture incubated for 5 min at room temperature. Kynurenine concentrations were determined by measuring the absorbance at 480 nm. A standard curve was made with pure kynurenine. The IDO1 activity was measured as described above using ten serial concentrations of the compounds of the present invention. Data were fitted using the Prism software (GraphPad Software, Inc.).
# hIDO1 [2] = biological target: T1, hIDO1; test: Cellular assay for IDO activity determination: hIDO1 P815 cells; assay type: cell-based; conditions: P815 cells overexpressing hIDO1, 24 hours
# Experimental: To determine IDO1 activity, the cells were incubated 24 hours at 37° C. at 5% CO2 in IMDM (Invitrogen) supplemented with 2% FBS and 2% penicillin/streptomycin in the presence of the compounds of the present invention, at different concentrations.
# The plates were then centrifuged 5 min at 1000 rpm, and 100 μL of the supernatant were collected in a conical plate, 30 uL of TCA 30% were added and a further centrifugated at 3000×g for 10 minutes. 100 μL of the supernatant were collected in a flat bottomed plate and 100 μL of 2% (w/v) 4-(dimethylamino)-benzaldehyde in acetic acid and incubated for 5 min at room temperature. […] A standard curve was made with pure kynurenine.
# hIDO1 [3] = biological target: T1, hIDO1; test: Cellular assay for IDO1 activity determination: HeLa cells; assay type: cell-based; conditions: HeLa cells stimulated with IFNγ
# Experimental: The assay was performed in 96-well flat bottom plates seeded with the human cervical cancer HeLa cell line with stimulation with IFN.
# To adhere HeLa cells (concentration of 5×10^3 cells/well) were incubated overnight at 37° C. at 5% CO2 in EMEM (Lonza) supplemented with 10% FBS, 2% penicillin/streptomycin and 2 mM Ultraglutamin, in a final volume of 200 μL.
# To stimulate the expression of IDO1, cells were then incubated two days at 37° C. at 5% CO2 in EMEM (Lonza) supplemented with 2% FBS, 2% penicillin/streptomycin and 2 mM Ultraglutamine and 100 ng/mL IFNγ (R&D).
# To determine IDO1 activity, medium was removed then the cells were incubated one day at 37° C. at 5% CO2 in EMEM (Lonza) supplemented with 2% FBS and 2% penicillin/streptomycin in the presence of the compounds of the present invention, at different concentrations. Then 100 μL of the supernatant were collected in a conical plate, 30 uL of TCA 30% were added and a centrifugation was made at 3000×g for 10 minutes. 100 μL of the supernatant were collected in a flat bottom plate and 100 μL of 2% (w/v) 4-(dimethylamino)-benzaldehyde in acetic acid and incubated for 5 min at room temperature. […] A standard curve was made with pure kynurenine.
# T1 sequence (P14902 whole entry): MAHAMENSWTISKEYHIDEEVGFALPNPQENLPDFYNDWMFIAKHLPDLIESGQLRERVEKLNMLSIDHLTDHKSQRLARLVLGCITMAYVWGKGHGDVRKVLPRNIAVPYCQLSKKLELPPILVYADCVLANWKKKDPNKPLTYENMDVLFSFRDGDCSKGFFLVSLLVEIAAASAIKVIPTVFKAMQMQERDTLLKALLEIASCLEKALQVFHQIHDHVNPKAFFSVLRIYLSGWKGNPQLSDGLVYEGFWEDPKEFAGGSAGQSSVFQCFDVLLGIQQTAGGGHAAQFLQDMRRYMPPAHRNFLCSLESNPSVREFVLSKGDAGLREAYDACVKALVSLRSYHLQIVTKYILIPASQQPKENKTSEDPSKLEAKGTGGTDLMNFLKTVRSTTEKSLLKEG
IC50 (hIDO1 [1]),SMILES,also measured
2.1 µM,"O=C1CC(c2c[nH]c3ccc(Cl)cc23)C(=O)N1 (stereo not drawn) [Compound 5, 3-(5-chloro-1H-indol-3-yl)pyrrolidine-2,5-dione]",IC50 (hIDO1 [2]): 0.59 µM
2.2 µM,"O=C1C[C@H](c2c[nH]c3ccc(Cl)cc23)C(=O)N1 [Compound 6, (−)-(R)-3-(5-chloro-1H-indol-3-yl)pyrrolidine-2,5-dione]",IC50 (hIDO1 [3]): 3.4 µM
> 50 µM,"O=C1C[C@@H](c2c[nH]c3ccc(Cl)cc23)C(=O)N1 [Compound 6a, (+)-(S)-3-(5-chloro-1H-indol-3-yl)pyrrolidine-2,5-dione]",
8 µM,"O=C1C[C@@H](c2c[nH]c3cc(Br)c(F)cc23)C(=O)N1 [Compound 10a, (S)-3-(6-bromo-5-fluoro-1H-indol-3-yl)pyrrolidine-2,5-dione]",
53 µM,"COc1ccc2[nH]cc(C3CC(=O)NC3=O)c2c1 (stereo not drawn) [Compound 13, 3-(5-methoxy-1H-indol-3-yl)pyrrolidine-2,5-dione]",
12 µM,"N#Cc1ccc2[nH]cc(C3CC(=O)NC3=O)c2c1 (stereo not drawn) [Compound 14, 3-(2,5-dioxopyrrolidin-3-yl)-1H-indole-5-carbonitrile]",
46 µM,"Cc1cc2[nH]cc(C3CC(=O)NC3=O)c2cc1F (stereo not drawn) [Compound 16, 3-(5-fluoro-6-methyl-1H-indol-3-yl)pyrrolidine-2,5-dione]",
18 µM,"O=C1CC(c2cccc3ccccc23)C(=O)N1 (stereo not drawn) [Compound 23, 3-(naphthalen-1-yl)pyrrolidine-2,5-dione]",
4.6 µM,"O=C1CC(c2cccc3ccc(F)cc23)C(=O)N1 (stereo not drawn) [Compound 25, 3-(7-fluoronaphthalen-1-yl)pyrrolidine-2,5-dione]",

# The next lines start with the molecule.
SMILES,IC50 (hIDO1 [1]),also measured
"O=C1C[C@H](c2c[nH]c3ccc(F)cc23)C(=O)N1 [Compound 2, (−)-(R)-3-(5-fluoro-1H-indol-3-yl)pyrrolidine-2,5-dione]",,Kynurenine concentration in plasma (average ± standard error of the mean) (Kynurenine; 10 mg/kg oral): 122 ± 3.5 ng/mL; inhibition of circulating Kynurenine (Kynurenine; 10 mg/kg oral): 39%; Kynurenine concentration in plasma (average ± standard error of the mean) (Kynurenine; 30 mg/kg oral): 91.0 ± 4.4 ng/mL; inhibition of circulating Kynurenine (Kynurenine; 30 mg/kg oral): 55%; Kynurenine concentration in plasma (average ± standard error of the mean) (Kynurenine; 100 mg/kg oral): 64.0 ± 3.8 ng/mL; inhibition of circulating Kynurenine (Kynurenine; 100 mg/kg oral): 68%; Mean tumor volume +/− SEM on day 55 (PancO2 tumors): 586.6 +/− 48.4 mm^3; TGI +/− SEM (Tumor growth inhibition) (PancO2 tumors; day 55): 16.8% +/− 8.2
"O=C1CC(c2c[nH]c3ccccc23)C(=O)N1 (stereo not drawn) [Compound 3, 3-(1H-indol-3-yl)pyrrolidine-2,5-dione]",3 µM,IC50 (hIDO1 [2]): 0.92 µM
"O=C1C[C@H](c2c[nH]c3ccccc23)C(=O)N1 [Compound 4, (−)-(R)-3-(1H-indol-3-yl)pyrrolidine-2,5-dione]",1.8 µM,IC50 (hIDO1 [2]): 0.24 µM
"O=C1C[C@@H](c2c[nH]c3ccccc23)C(=O)N1 [Compound 4a, (+)-(S)-3-(1H-indol-3-yl)pyrrolidine-2,5-dione]",> 50 µM,IC50 (hIDO1 [2]): 3.3 µM
"O=C1CC(c2c[nH]c3cc(Cl)c(F)cc23)C(=O)N1 (stereo not drawn) [Compound 7, 3-(6-chloro-5-fluoro-1H-indol-3-yl)pyrrolidine-2,5-dione]",0.49 µM,
"O=C1C[C@H](c2c[nH]c3cc(Cl)c(F)cc23)C(=O)N1 [Compound 8, (R)-3-(6-chloro-5-fluoro-1H-indol-3-yl)pyrrolidine-2,5-dione]",,IC50 (hIDO1 [3]): 3.6 µM
"O=C1CC(c2c[nH]c3cc(Br)c(F)cc23)C(=O)N1 (stereo not drawn) [Compound 9, 3-(6-bromo-5-fluoro-1H-indol-3-yl)pyrrolidine-2,5-dione]",0.29 µM,IC50 (hIDO1 [3]): 7 µM
"O=C1C[C@H](c2c[nH]c3cc(Br)c(F)cc23)C(=O)N1 [Compound 10, (R)-3-(6-bromo-5-fluoro-1H-indol-3-yl)pyrrolidine-2,5-dione]",0.62 µM,
"O=C1CC(c2c[nH]c3ccc(Br)cc23)C(=O)N1 (stereo not drawn) [Compound 11, 3-(5-bromo-1H-indol-3-yl)pyrrolidine-2,5-dione]",0.37 µM,IC50 (hIDO1 [3]): 5.9 µM
"Cc1ccc2[nH]cc(C3CC(=O)NC3=O)c2c1 (stereo not drawn) [Compound 12, 3-(5-methyl-1H-indol-3-yl)pyrrolidine-2,5-dione]",53 µM,
"O=C1CC(c2c[nH]c3cc(F)c(F)cc23)C(=O)N1 (stereo not drawn) [Compound 15, 3-(5,6-difluoro-1H-indol-3-yl)pyrrolidine-2,5-dione]",1.8 µM,IC50 (hIDO1 [2]): 0.26 µM
"O=C1CC(c2c[nH]c3cc(F)ccc23)C(=O)N1 (stereo not drawn) [Compound 17, 3-(6-fluoro-1H-indol-3-yl)pyrrolidine-2,5-dione]",3.4 µM,
"O=C1CC(c2c[nH]c3cc(Cl)ccc23)C(=O)N1 (stereo not drawn) [Compound 18, 3-(6-chloro-1H-indol-3-yl)pyrrolidine-2,5-dione]",2.1 µM,IC50 (hIDO1 [2]): 0.5 µM
"O=C1CC(c2c[nH]c3cc(Br)ccc23)C(=O)N1 (stereo not drawn) [Compound 19, 3-(6-bromo-1H-indol-3-yl)pyrrolidine-2,5-dione]",0.42 µM,
"Cc1ccc2c(C3CC(=O)NC3=O)c[nH]c2c1 (stereo not drawn) [Compound 20, 3-(6-methyl-1H-indol-3-yl)pyrrolidine-2,5-dione]",54 µM,
"N#Cc1ccc2c(C3CC(=O)NC3=O)c[nH]c2c1 (stereo not drawn) [Compound 22, 3-(2,5-dioxopyrrolidin-3-yl)-1H-indole-6-carbonitrile]",1.7 µM,
"O=C1CC(c2cccc3cc(F)ccc23)C(=O)N1 (stereo not drawn) [Compound 24, 3-(6-fluoronaphthalen-1-yl)pyrrolidine-2,5-dione]",1.7 µM,
